Measured values from patent US9481676B2, “Azepino[4,5-B]indoles and methods of use” (Medivation Technologies, Inc., priority 2008, dated 2016).

Experiments:
[1] = target: T1, human recombinant serotonin (5-Hydroxytryptamine) 5-HT6 receptor (Homo sapiens, UniProt P50406); test: Serotonin 5-HT6 radioligand binding ([3H]LSD); conditions: compound at 1 μM; read-out: Serotonin (1 μM) 5-HT6, percent inhibition of specific binding
T1 construct: expressed in transfected cells; host or cells: human HeLa cells
Method in brief: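 Human recombinant 5-HT6 receptor from HeLa cells incubated with 1.5 nM [3H]LSD for 120 min at 37° C in 50 mM Tris-HCl pH 7.4, 150 mM NaCl, 2 mM ascorbic acid, 0.001% BSA. Nonspecific binding defined with 5 μM serotonin; bound ligand counted after filtration.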

[2] = target: T2, human recombinant dopamine D2L receptor (Homo sapiens, UniProt P14416); test: Dopamine D2L radioligand binding ([3H]Spiperone); conditions: compound at 1 μM; read-out: Dopamine (1 μM) D2L, percent inhibition of specific binding
T2 construct: expressed in transfected cells; host or cells: CHO cells
Method in brief: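 Human recombinant D2L receptor from CHO cells, in Tris-HCl buffer pH 7.4 with ascorbic acid, BSA and 150 mM NaCl; compounds at 1 μM or lower (1% DMSO) incubated with 0.16 nM [3H]spiperone, 120 min, 25° C. Nonspecific binding by 10 μM haloperidol; filter counting; % inhibition of specific binding.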

[3] = target: T3, human recombinant adrenergic α1D receptor (Homo sapiens, UniProt P25100); test: Adrenergic alpha1D radioligand binding ([3H]Prozosin); conditions: compound at 1 μM; read-out: Adrenergic (1 μM) α1D, percent inhibition of specific binding
T3 construct: expressed in transfected cells; host or cells: HEK-293 cells
T3 sequence (P25100 1-572): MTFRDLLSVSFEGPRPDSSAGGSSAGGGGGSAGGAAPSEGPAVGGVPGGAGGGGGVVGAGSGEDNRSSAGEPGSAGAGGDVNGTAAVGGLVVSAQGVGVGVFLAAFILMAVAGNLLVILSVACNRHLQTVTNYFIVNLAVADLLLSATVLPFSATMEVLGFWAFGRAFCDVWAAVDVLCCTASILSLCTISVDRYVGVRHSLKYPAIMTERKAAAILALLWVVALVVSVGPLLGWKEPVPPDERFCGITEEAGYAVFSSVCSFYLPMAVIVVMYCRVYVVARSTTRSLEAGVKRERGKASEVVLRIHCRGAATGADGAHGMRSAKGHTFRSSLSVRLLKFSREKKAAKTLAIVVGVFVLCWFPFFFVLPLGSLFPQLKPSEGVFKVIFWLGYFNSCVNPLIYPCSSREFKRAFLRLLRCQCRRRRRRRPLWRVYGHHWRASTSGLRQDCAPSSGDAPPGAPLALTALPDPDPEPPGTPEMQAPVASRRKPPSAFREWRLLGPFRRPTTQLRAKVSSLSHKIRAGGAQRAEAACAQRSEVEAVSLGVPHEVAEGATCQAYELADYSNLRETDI
Method in brief: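 Membranes from HEK-293 cells expressing the human receptor in 50 mM Tris-HCl pH 7.4 were incubated 60 min at 25 °C with 0.6 nM [3H]prazosin. Nonspecific binding was defined with 10 μM phentolamine, and bound ligand measured by filtration.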

[4] = target: T4, human recombinant histamine H2 receptor (Homo sapiens, UniProt P25021); test: Histamine H2 radioligand binding ([125I]Aminopotentidine); conditions: compound at 1 μM; read-out: Histamine Binding (1 μM) H2, percent inhibition of specific binding
T4 construct: expressed in transfected cells; host or cells: CHO-K1 cells
Method in brief: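 Membranes from CHO-K1 cells expressing recombinant human H2 receptor, in 50 mM phosphate buffer pH 7.4, incubated with 0.1 nM [125I]aminopotentidine for 120 min at 25 °C; nonspecific binding defined with 3 μM tiotidine.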

T4 sequence (P25021 whole entry): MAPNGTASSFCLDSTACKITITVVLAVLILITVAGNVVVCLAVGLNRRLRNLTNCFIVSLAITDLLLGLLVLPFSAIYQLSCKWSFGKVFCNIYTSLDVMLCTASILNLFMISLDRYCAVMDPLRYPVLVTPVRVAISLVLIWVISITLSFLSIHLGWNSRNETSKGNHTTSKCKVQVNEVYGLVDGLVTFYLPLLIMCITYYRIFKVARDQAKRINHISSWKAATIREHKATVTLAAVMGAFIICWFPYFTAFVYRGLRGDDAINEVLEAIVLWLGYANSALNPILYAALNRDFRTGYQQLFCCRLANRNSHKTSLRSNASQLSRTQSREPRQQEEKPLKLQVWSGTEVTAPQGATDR
T1 sequence (P50406 whole entry): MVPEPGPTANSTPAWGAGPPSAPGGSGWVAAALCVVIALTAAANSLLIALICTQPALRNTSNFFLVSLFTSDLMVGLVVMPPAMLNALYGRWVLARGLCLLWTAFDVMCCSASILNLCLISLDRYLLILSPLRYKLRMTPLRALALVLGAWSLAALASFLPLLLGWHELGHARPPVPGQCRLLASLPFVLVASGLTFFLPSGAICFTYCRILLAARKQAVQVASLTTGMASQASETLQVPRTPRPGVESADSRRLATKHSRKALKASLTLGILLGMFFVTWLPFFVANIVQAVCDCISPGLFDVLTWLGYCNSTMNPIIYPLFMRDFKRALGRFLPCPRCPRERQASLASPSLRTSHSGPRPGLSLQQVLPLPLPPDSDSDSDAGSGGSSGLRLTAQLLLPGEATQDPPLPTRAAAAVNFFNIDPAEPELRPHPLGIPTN
T2 sequence (P14416 whole entry): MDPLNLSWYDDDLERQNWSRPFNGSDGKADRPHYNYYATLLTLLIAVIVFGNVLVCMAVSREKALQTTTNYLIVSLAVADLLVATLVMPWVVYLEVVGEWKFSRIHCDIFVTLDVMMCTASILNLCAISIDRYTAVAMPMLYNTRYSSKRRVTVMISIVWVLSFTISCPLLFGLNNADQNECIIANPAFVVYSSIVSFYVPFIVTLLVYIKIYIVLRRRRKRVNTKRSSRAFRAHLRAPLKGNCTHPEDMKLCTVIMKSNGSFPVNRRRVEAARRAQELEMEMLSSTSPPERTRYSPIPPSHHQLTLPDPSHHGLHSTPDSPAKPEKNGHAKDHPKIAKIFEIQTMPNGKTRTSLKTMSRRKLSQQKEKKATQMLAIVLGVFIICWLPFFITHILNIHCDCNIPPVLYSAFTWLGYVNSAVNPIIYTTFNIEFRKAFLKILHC

SMILES	inhibition at 1 µM [1] [%]	inhibition at 1 µM [2] [%]	inhibition at 1 µM [3] [%]	inhibition at 1 µM [4] [%]
COc1ccc(/C=C/n2c3c(c4cc(Cl)ccc42)CCN(C)CC3)cc1OC [Compound No. 226, (E)-9-chloro-6-(3,4-dimethoxystyryl)-3-methyl-1,2,3,4,5,6-hexahydroazepino[4,5-b]indole]	36	37	83	39
C/C(=C/n1c2c(c3cc(C)ccc31)CCN(C)CC2)c1ccc(Cl)cc1Cl [Compound No. 174, (Z)-6-(2-(2,4-dichlorophenyl)prop-1-enyl)-1,2,3,4,5,6-hexahydro-3,9-dimethylazepino[4,5-b]indole]	100	34	89	99
COc1ccc(C(O)Cn2c3c(c4cc(C)ccc42)CCN(C)CC3)cc1OC (stereo not drawn) [Compound No. 227, 1-(3,4-dimethoxyphenyl)-2-(3,9-dimethyl-2,3,4,5-tetrahydroazepino[4,5-b]indol-6(1H)-yl)ethanol]	30	5	73	19
C/C(=C/n1c2c(c3cc(Cl)ccc31)CCN(C)CC2)c1ccc(Cl)cc1Cl [Compound No. 152, (Z)-9-chloro-6-(2-(2,4-dichlorophenyl)prop-1-enyl)-1,2,3,4,5,6-hexahydro-3-methylazepino[4,5-b]indole]	73	3	47	86
Cc1ccc2c(c1)c1c(n2CC(=O)Nc2ccccc2)CCN(C)CC1 [Compound No. 79, 2-(2,3,4,5-tetrahydro-3,9-dimethylazepino[4,5-b]indol-6(1H)-yl)-N-phenylacetamide]	-7	-7	-6	0
CN1CCc2c(n(/C=C/c3ccccc3F)c3ccc(Cl)cc23)CC1 [Compound No. 83, (E)-9-chloro-6-(2-fluorostyryl)-3-methyl-1,2,3,4,5,6-hexahydro azepino[4,5-b]indole]	103	61	93	98
COc1ccc(/C=C/n2c3c(c4cc(Cl)ccc42)CCN(C)CC3)cc1F [Compound No. 158, (E)-6-(3-fluoro-4-methoxystyryl)-9-chloro-1,2,3,4,5,6-hexahydro-3-methylazepino[4,5-b]indole]	93	65	98	89
C/C(=C\n1c2c(c3cc(Cl)ccc31)CCN(C)CC2)c1ccc(F)cc1 [Compound No. 2, 9-chloro-6-((E)-2-(4-fluorophenyl)prop-1-enyl)-1,2,3,4,5,6-hexahydro-3-methylazepino[4,5-b]indole]	103	97	100	105
CN1CCc2c(n(/C=C/c3ccccc3)c3ccc(Cl)cc23)CC1 [Compound No. 228, (E)-9-chloro-3-methyl-6-styryl-1,2,3,4,5,6-hexahydroazepino[4,5-b]indole]	104	73	98	97
COc1ccc(C(O)Cn2c3c(c4cc(Cl)ccc42)CCN(C)CC3)cc1OC (stereo not drawn) [Compound No. 77, 2-(9-chloro-2,3,4,5-tetrahydro-3-methylazepino[4,5-b]indol-6(1H)-yl)-1-(3,4-dimethoxyphenyl)ethanol]	33	16	81	37
CN1CCc2c(n(CCc3ccc(C(F)(F)F)nc3)c3ccc(Cl)cc23)CC1 [Compound No. 1, 9-chloro-6-(2-(6-(trifluoromethyl)pyridin-3-yl)ethyl)-1,2,3,4,5,6-hexahydro-3-methylazepino[4,5-b]indole]	86	23	90	58
COc1ccc(/C=C/n2c3c(c4cc(Cl)ccc42)CCN(C)CC3)cc1 [Compound No. 78, 6-(4-methoxystyryl)-9-chloro-1,2,3,4,5,6-hexahydro-3-methylazepino[4,5-b]indole]	91	58	102	91
C=C(Cn1c2c(c3cc(Cl)ccc31)CCN(C)CC2)c1ccc(F)cc1 [Compound No. 82, 9-chloro-6-(2-(4-fluorophenyl)allyl)-3-methyl-1,2,3,4,5,6-hexahydroazepino[4,5-b]indole]	104	90	96	95
COc1ccc(/C=C/n2c3c(c4cc(C)ccc42)CCN(C)CC3)cc1F [Compound No. 180, (E)-6-(3-fluoro-4-methoxystyryl)-1,2,3,4,5,6-hexahydro-3,9-dimethylazepino[4,5-b]indole]	95	62	98	77
Cc1ccc2c(c1)c1c(n2CC(=O)N2CCNCC2)CCN(C)CC1 [Compound No. 224, 2-(3,9-dimethyl-2,3,4,5-tetrahydroazepino[4,5-b]indol-6(1H)-yl)-1-(piperazin-1-yl)ethanone]	-4	-2	19	-4
Cc1cncc(CCn2c3c(c4cc(Cl)ccc42)CCN(C)CC3)c1 [Compound No. 3, 9-chloro-3-methyl-6-(2-(5-methylpyridin-3-yl)ethyl)-1,2,3,4,5,6-hexahydroazepino[4,5-b]indole]	92	27	89	82
Cc1ccc2c(c1)c1c(n2CC(=O)N2CCC(C)CC2)CCN(C)CC1 [Compound No. 225, 2-(3,9-dimethyl-2,3,4,5-tetrahydroazepino[4,5-b]indol-6(1H)-yl)-1-(4-methylpiperidin-1-yl)ethanone]	16	3	34	6
CC1CCN(C(=O)Cn2c3c(c4cc(Cl)ccc42)CCN(C)CC3)CC1 [Compound No. 76, 2-(9-chloro-2,3,4,5-tetrahydro-3-methylazepino[4,5-b]indol-6(1H)-yl)-1-(4-methylpiperidin-1-yl)ethanone]	39	0	37	19
